Measured values taken from patent US20130310347A1, “MULTI-MODALITY MOLECULAR IMAGING HIGH-THROUGHPUT ASSAY FOR IDENTIFYING HEAT SHOCK PROTEIN 90 (HSP90) INHIBITORS” (The Board of Trustees of the Leland Stanford Junior …, priority 2012, published 2013).

Columns and labels:
[1] = test system: Hsp90 client proteins (Raf-1, total and phosphorylated Akt); experiment: Western blotting of Hsp90 client proteins in 293T cells; format: cell-based, human; details: 5 μM, 24 h
Protocol: FIG. 5A is a digital image of a western blot analysis illustrating the effect of lead compounds on the expression of Hsp90 client proteins. 293T cells stably expressing Hsp90(α/β)/p23 split reporters were treated with carrier control or compounds CP1, CP9, or CP18 (5 μM each) for 24 h. The known Hsp90 inhibitor PU-H71 (2 μM) was used as a positive control. The expression of Hsp90 client proteins (Raf-1, total and phosphorylated Akt) was determined by western blotting. α-Tubulin was used as a loading control.
Cells treated with PU-H71 (2 μM) served as a positive control.
Cells treated with 2 μM of PU-H71 served as a positive control. Western blotting of Hsp70, phosphorylated and total Akt and co-immunoprecipitation of Hsp90(α/β)/p23 interactions was performed as described Inglese et al., (2006) Proc. Nat. Acad. Sci. U.S.A. 103: 11473-11478, incorporated herein by reference in its entirety. The expression of Raf-1 was determined using rabbit polyclonal antibodies against Raf-1 (0.5 μg/ml, Abcam).

[2] = test system: 293T Hsp90(α/β)/p23-FG xenografts; experiment: 18F-FDG small animal PET/CT of tumor glucose metabolism; format: in vivo, mice
Protocol: FIG. 8B is a graph illustrating quantitation of the effect of CP9 on inhibition of glucose metabolism. The PET image of each mouse and each site at each time point was reconstructed and quantified using the OSEM 2D algorithm. The increase in max % ID/g at 43 h relative to 0 hr is shown as average±S.E.M. CP9 led to significant decrease in glucose metabolism, compared to carrier control treated mice (p<0.005).
^18F-FDG PET/CT has been used for repetitive and non-invasive monitoring of chemotherapy responses both in small animals and in humans (Aliaga et al., (2007) Mol. Imaging. Biol. 9: 144-150; de Geus-Oei et al., (2009) J. Nucl. Med. 50(Suppl 1): 43S-54S). Since CP9 inhibits glucose metabolism in cancer cells (FIG. 6B), its effect in the same cohort of living mice used for BLI (FIGS. 7A-7C) was monitored by small animal PET/CT imaging using ^18F-FDG. […] Baseline ^18F-FDG uptake in tumor-bearing mice was determined pre-treatment with four doses of carrier control (DMSO) or CP9 (80 mg/kg in DMSO) (FIG. 8A). The % max ID/g of ^18F-FDG uptake was determined by the OSEM2D method upon normalization of injected dose (Wiant et al., (2010) Med. Phys. 37: 1169-1182). The % increase in ^18F-FDG uptake at 43 h relative to 0 h was determined for each tumor site. […]

[3] = test system: cellular Hsp90; experiment: 3H-17AAG uptake in intact HT29 cells; format: cell-based; details: CP9 0.4 to 12.5 μM, 3H-17AAG 0.5 μM, 1 h, dose-dependent, p<0.05
Protocol: FIG. 5D is a graph illustrating the inhibition of ^3H-17AAG uptake by CP9 in HT29 cells. HT29 cells were pre-incubated with different concentrations of CP9 together with ^3H-17AAG (0.5 μM) for 1 h followed by 1 h of wash-out of unbound ^3H-17AAG in fresh medium. The amount of ^3H-17-AAG incorporated intracellularly was determined by scintillation counting of cell lysates, followed by normalization for protein content and to carrier control-treated cells. Cells incubated with 5 μM of PU-H71 served as a positive control. Results are expressed as means of triplicates±S.E.M. *, p<0.05 vs. carrier control-treated cells.
To confirm the direct binding of CP9 to Hsp90(α/β), an in vitro competitive binding assay using purified Hsp90α and Hsp90β was performed using radiolabeled Hsp90 inhibitor ^3H-17AAG. Hsp90 proteins were pre-bound with CP9 or cold 17-AAG as a control prior to incubation with ^3H-17AAG. Unbound ^3H-17AAG was removed and the amount of ^3H-17AAG bound to the Hsp90 proteins was determined. […]
To determine if CP9 binds to cellular Hsp90, an uptake study of ^3H-17AAG (Moravek Biochemicals, Brea, Calif.) was performed. […] The total counts in each sample were normalized to that of the dose added to each well and to the amount of protein, and expressed as mean counts/dose/μg protein±S.E.M.

SMILES: Cc1cc(NC(=O)CSc2nc(-c3cccs3)cc(C(F)(F)F)n2)no1 [CP9, N-(5-methylisoxazol-3-yl)-2-(4-(thiophen-2-yl)-6-(trifluoromethyl)pyrimidin-2-ylthio)acetamide]
- levels of Hsp90 client proteins (pAkt/total Akt, Raf-1) [1]: more effective than CP18
- decrease in 18F-FDG uptake in tumors relative to carrier control treated mice ([2]; CP9 treatment, 43 h): 40%
- decrease in 18F-FDG uptake in tumors at 43 h relative to 0 h ([2]; four doses CP9 80 mg/kg in DMSO, n=10 tumors, p<0.005 vs carrier control): 16±9%
- maximum reduction in uptake of 3H-17AAG relative to carrier control [3]: 30%
